Like-named read-outs stand apart in the source and are kept apart here.
Experiments:
[1] = molecular target: T1, HIF-2α HIS TAG-PASB Domain (Homo sapiens, UniProt Q99814); assay: HIF-2α Scintillation Proximity Assay (SPA); assay type: binding
T1 construct: 100 nM HIF-2α HIS TAG-PASB Domain
In short: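 IC50 values rest on percent inhibition, where the sample signal is scaled between high and low controls. Wells contain about 100 μL: compound dispensed as 2 μL of DMSO solution, 88 μL protein-probe mix and 10 μL of beads.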

786-O cells = assay: VEGF ELISA Assay; assay type: cell-based; settings: Homo sapiens, 786-0
Experimental: Each concentration was plated in duplicate. About 20 hours later, medium was removed by suction and each well was supplied with 180 μL of growth medium. About 20 μl freshly-made 10× compound stocks were added to each well. […] The EC50 was calculated by GraphPad Prism using the dose-response-inhibition (four parameter) equation. The cell-seeded plate was then subjected to CellTiter-Glo luminescence cell viability assay (Promega) by adding 50 μL of Celltiter Glo reagent into each well and shaking the plate for 8 minutes at 550 rpm (Thermomixer R, Eppendorf) then the luminescence signal immediately read in a plate reader (3 second delay, 0.5 second/well integration time, Synergy 2 multi Detection Microplate reader).

786-O-Hif-Luc cells = assay: Luciferase Assay (HIF responsive elements reporter)
Experimental: A pool of infected cells were then selected against 2 μg/mL of puromycin (P8833, Sigma) for 10 days followed by limited dilution to select single clones. […] Each concentration was tested in triplicate. After about 24 hours, luciferase activity was determined using ONE-Glo Luciferase Assay Reagent (E6110, Promega) following the manufacturer's recommended procedure. EC50 were calculated using Dotmatics software.

[2] = read-out: Scintillation Proximity Assay IC50
[3] = read-out: Mean Luciferase EC50 (nM), 786-O-Hif-Luc cells
[4] = read-out: Mean Luciferase EC50 (nM)

T1 sequence (Q99814 240-350 limits assumed): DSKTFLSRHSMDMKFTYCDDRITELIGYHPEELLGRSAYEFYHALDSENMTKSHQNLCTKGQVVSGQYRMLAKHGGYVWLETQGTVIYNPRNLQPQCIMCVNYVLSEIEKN

| Compound | IC50 [1, 2] [nM] | EC50 (786-O cells) [nM] | EC50 (786-O-Hif-Luc cells; [3]) [nM] | EC50 (786-O-Hif-Luc cells; [4]) [nM] | IC50 ([1]; Scintillation Proximity Assay IC50 (nM)) [nM] |
| --- | --- | --- | --- | --- | --- |
| O[C@H]1c2c(C(F)(F)F)ncc(OC3CC(F)C3)c2C[C@H]1F (stereo partly shown) [Compound 478] | – | < 50 | < 50 | – | – |
| N#Cc1cc(F)cc(Oc2ccc(S(=O)(=O)C(F)F)c3c2CC[C@H]3O)c1 [Compound 155] | – | 50 to 249 | – | 50 to 249 | – |
| O=S1(=O)c2ccc(Oc3cc(F)cc(Cl)c3)c(Br)c2C(O)C1(F)F (stereo not shown) [Compound 355] | – | 50 to 249 | – | – | < 50 |
| N#Cc1cccc(Oc2ccc(S(=O)(=O)C(F)(F)F)c(C#N)c2Br)c1 [Compound 99] | – | 250 to 1000 | 250 to 1000 | – | – |
| C[C@@]1(O)c2c(ccc(Oc3cc(F)cc(C#N)c3)c2C#N)S(=O)(=O)C1(F)F [Compound 458] | – | < 50 | < 50 | – | – |
| O=S(=O)(c1ccc(Oc2cc(F)cc(Cl)c2)c2c1C(O)CC2)C(F)F (stereo not shown) [Compound 17] | – | 50 to 249 | – | – | – |
| O=S(=O)(c1ccc(Oc2cc(F)cc(Cl)c2)c(Cl)c1CO)C(F)F [Compound 41] | – | 250 to 1000 | – | 250 to 1000 | – |
| N#Cc1ccc(Oc2cc(F)cc(F)c2)c2c1[C@H](O)C(F)(F)C2 [Compound 67] | – | 50 to 249 | – | – | – |
| O=S(=O)(c1ccc(Oc2cc(F)cc(Cl)c2)c2c1[C@H](O)CC2)C(F)F [Compound 1] | – | 250 to 1000 | – | – | – |
| N#Cc1cc(F)cc(Oc2ccc(S(=N)(=O)CF)c3c2CC(F)(F)[C@H]3O)c1 (stereo partly shown) [Compound 274] | 50 to 249 | > 1000 | – | – | – |
| N#Cc1cc(S(=O)(=O)C(F)F)ccc1Oc1cc(F)cc(Cl)c1 [Compound 133] | 250 to 1000 | > 1000 | – | – | – |
| CC1(O)c2c(ccc(Oc3cc(F)cc(C#N)c3)c2C#N)S(=O)(=O)C1(F)F (stereo not shown) [Compound 451] | – | < 50 | < 50 | – | – |
| O=S(=O)(c1ccc(Oc2c(F)ccc3[nH]ncc23)c2c1[C@H](O)C(F)(F)C2)C(F)(F)F [Compound 264] | 250 to 1000 | – | > 1000 | – | – |
| N#Cc1cnn(Cc2ccc(S(=O)(=O)C(F)(F)F)c3c2CC(F)(F)[C@H]3O)c1 [Compound 538] | > 1000 | – | > 1000 | – | – |
| O=S(=O)(c1ccc(Oc2cc(F)cc(Cl)c2)c(C(F)F)c1)C(F)(F)F [Compound 124] | – | 250 to 1000 | – | 250 to 1000 | – |
| O[C@H]1c2c(C(F)(F)F)ccc(OCCCF)c2[C@H](F)C1(F)F [Compound 701] | 50 to 249 | – | > 1000 | – | – |
| CS(=O)(=O)c1ccc(OC2CC(F)(F)C2)c2c1[C@H](O)C(F)(F)[C@H]2F [Compound 575, (1S,3S)-4-(3,3-difluorocyclobutoxy)-2,2,3-trifluoro-7-(methylsulfonyl)-2,3-dihydro-1H-inden-1-ol] | 250 to 1000 | – | > 1000 | – | – |
| N#Cc1cc(F)cc(Oc2ccc3c(c2C#N)[C@@H](O)CS3(=O)=O)c1 [Compound 416] | > 1000 | – | 250 to 1000 | – | – |
| O=S(=O)(c1ccc(Oc2cc(F)cc(Cl)c2)c(Br)c1CNCc1ccccc1)C(F)(F)F [Compound 110] | > 1000 | – | > 1000 | – | – |
| CS(=O)(=O)c1ccc(Oc2cccc(C#N)c2)c2c1[C@H](O)C(F)(F)C2 [Compound 162] | 50 to 249 | – | 50 to 249 | – | – |

| Compound | IC50 [1, 2] [nM] | EC50 (786-O cells) [nM] | EC50 (786-O-Hif-Luc cells; [3]) [nM] | EC50 (786-O-Hif-Luc cells; [4]) [nM] | IC50 ([1]; Scintillation Proximity Assay IC50 (nM)) [nM] |
| --- | --- | --- | --- | --- | --- |
| O=S(=O)(c1ccc(OC2CCC(O)CC2)c2c1C(O)C(F)(F)C2)C(F)(F)F (stereo not shown) [Compound 618] | > 1000 | – | > 1000 | – | – |
| Cc1c(S(C)(=O)=O)ccc(Oc2cc(F)cc(Cl)c2)c1C(F)F [Compound 53] | 250 to 1000 | – | > 1000 | – | – |
| OC1c2c(I)ccc(OCC(F)F)c2CC1(F)F (stereo not shown) [Compound 681] | 50 to 249 | – | 50 to 249 | – | – |
| C[C@]1(C#N)C[C@H](Oc2ccc(S(=O)(=O)C(F)(F)F)c3c2CC(F)(F)[C@H]3O)C1 [Compound 788] | 50 to 249 | – | 250 to 1000 | – | – |
| O=S(=O)(c1ccc(Oc2cc(F)cc(F)c2)c2c1CCC2)C(F)F [Compound 20] | > 1000 | – | > 1000 | – | – |
| COc1cc(F)cc(Oc2ccc3c(c2C#N)[C@@H](O)C(F)(F)S3(=O)=O)c1 [Compound 427] | 50 to 249 | – | > 1000 | – | – |
| C#CCOc1ccc(S(=O)(=O)C(F)(F)F)c2c1CC(F)(F)[C@H]2O [Compound 711] | 250 to 1000 | – | 250 to 1000 | – | – |
| O=S1(=O)c2ccc(Oc3cncc(Cl)c3)c(Cl)c2[C@@H](O)C1(F)F [Compound 432] | 250 to 1000 | – | 250 to 1000 | – | – |
| O=S(=O)(CF)c1ccc(Oc2cccc3sccc23)c2c1C(O)C(F)(F)C2 (stereo not shown) [Compound 242] | 50 to 249 | – | 250 to 1000 | – | – |
| O=S(=O)(c1ccc(Nc2cc(F)cc(F)c2)c2c1C(O)CC2)C(F)(F)F (stereo not shown) [Compound 506] | 250 to 1000 | – | > 1000 | – | – |
| Cc1cc(S(=O)(=O)C(F)F)ccc1Oc1cc(F)cc(C#N)c1 [Compound 136] | 50 to 249 | – | > 1000 | – | – |
| CS(=O)(=O)c1ccc(Oc2cc(Cl)cc(C#N)c2)c2c1[C@H](O)C(F)(F)C2 [Compound 234] | – | 50 to 249 | – | < 50 | – |
| O=S(=O)(c1ccc(OCc2ccccc2)c2c1[C@H](O)C(F)(F)C2)C(F)F [Compound 780] | > 1000 | – | > 1000 | – | – |
| O=S(=O)(c1ccc(Oc2c(F)ccc3[nH]ncc23)c2c1C(O)C(F)(F)C2)C(F)(F)F (stereo not shown) [Compound 244] | 250 to 1000 | – | > 1000 | – | – |
| Cc1c(Oc2cc(F)cc(C#N)c2)ccc(S(=O)(=O)C(F)(F)F)c1CO [Compound 146] | 50 to 249 | – | 250 to 1000 | – | – |
| O/N=C1/c2c(C(F)(F)F)ccc(OC3CC(F)(F)C3)c2CC1(F)F [Compound 672] | 50 to 249 | – | > 1000 | – | – |
| CS(=O)(=O)c1ccc(OC(CF)CF)c2c1[C@H](O)C(F)(F)[C@@H]2F [Compound 762] | 250 to 1000 | – | 250 to 1000 | – | – |
| N#Cc1cc(F)cc(Oc2ccc(S(N)(=O)=O)c3c2C[C@@H](F)[C@H]3O)c1 [Compound 334] | 50 to 249 | – | 50 to 249 | – | – |
| O=S(=O)(c1ccc(Oc2ccc(F)cc2)c2c1C(O)CC2)C(F)(F)F (stereo not shown) [Compound 212] | 250 to 1000 | – | > 1000 | – | – |

The next lines start with results.

| IC50 [1, 2] [nM] | EC50 (786-O cells) [nM] | EC50 (786-O-Hif-Luc cells; [3]) [nM] | Compound | EC50 (786-O-Hif-Luc cells; [4]) [nM] | IC50 ([1]; Scintillation Proximity Assay IC50 (nM)) [nM] |
| --- | --- | --- | --- | --- | --- |
| < 50 | < 50 | < 50 | O=S(=O)(CF)c1ccc(Oc2cc(F)cc(F)c2)c2c1[C@H](O)C(F)(F)C2 [Compound 64] | – | – |
| < 50 | 50 to 249 | < 50 | O=S(=O)(CF)c1ccc(O[C@H]2C[C@H](F)C2)c2c1[C@H](O)[C@H](F)[C@@H]2F [Compound 743] | – | – |
| < 50 | < 50 | < 50 | O=S(=O)(c1ccc(OC2CCC2)c2c1[C@H](O)C(F)(F)C2)C(F)(F)F [Compound 657] | – | – |
| < 50 | 50 to 249 | 50 to 249 | CS(=O)(=O)c1ccc(O[C@H]2C[C@H](C#N)C2)c2c1[C@H](O)C(F)(F)[C@@H]2F [Compound 760] | – | – |
| < 50 | 50 to 249 | 50 to 249 | O=S(=O)(c1ccc(OCC2COC2)c2c1[C@H](O)C(F)(F)C2)C(F)(F)F [Compound 713] | – | – |
| 50 to 249 | 250 to 1000 | – | O=S(=O)(c1ccc(Oc2cc(F)cc(Cl)c2)c(Br)c1CO)C(F)(F)F [Compound 102] | – | – |
| < 50 | < 50 | < 50 | CS(=O)(=NC#N)c1ccc(Oc2cc(F)cc(C#N)c2)c2c1[C@H](O)C(F)(F)[C@@H]2F (stereo partly shown) [Compound 316] | – | – |
| < 50 | 50 to 249 | 50 to 249 | CS(=O)(=NC#N)c1ccc(Oc2cc(F)cc(F)c2)c2c1C(O)C(F)(F)C2 (stereo not shown) [Compound 191] | – | – |
| 50 to 249 | 250 to 1000 | 50 to 249 | CS(=O)(=O)c1ccc(OC2CC(F)(F)C2)c2c1[C@H](O)C(F)(F)C2 [Compound 734] | – | – |
| < 50 | < 50 | < 50 | O=S(=O)(c1ccc(Oc2ccc(F)cc2)c2c1[C@H](O)C(F)(F)C2)C(F)(F)F [Compound 230] | – | – |
| < 50 | 50 to 249 | 50 to 249 | CS(=O)(=O)c1ccc(O[C@H]2C[C@H](F)C2)c2c1[C@H](O)C(F)(F)[C@@H]2F [Compound 736] | – | – |
| < 50 | > 1000 | – | O=S(=O)(c1ccc(Oc2cc(F)cc(Cl)c2)c(Br)c1Cl)C(F)(F)F [Compound 179] | – | – |
| < 50 | – | < 50 | N#Cc1cccc(Oc2ccc3c(c2C(F)F)[C@@H](O)C(F)(F)S3(=O)=O)c1 [Compound 435] | – | – |
| < 50 | – | 50 to 249 | CC(C)Oc1ccc(S(=O)(=O)C(F)(F)F)c2c1CC(F)(F)C2O (stereo not shown) [Compound 593] | – | – |
| < 50 | – | > 1000 | O/N=C1/c2c(C(F)(F)F)ccc(OCCCF)c2[C@@H](F)C1(F)F [Compound 581] | – | – |
| < 50 | – | 250 to 1000 | COCCCOc1ccc(S(=O)(=O)C(F)(F)F)c2c1CC(F)(F)C2O (stereo not shown) [Compound 608] | – | – |
| < 50 | – | 50 to 249 | Cc1cc(C#N)cc(Oc2ccc3c(c2C(F)F)[C@@H](O)C(F)(F)S3(=O)=O)c1 [Compound 392] | – | – |
| < 50 | – | > 1000 | CCOc1ccc(S(C)(=O)=O)c2c1CC(F)(F)[C@H]2O [Compound 778] | – | – |
| < 50 | – | 250 to 1000 | O=Cc1c(S(=O)(=O)C(F)(F)F)ccc(Oc2cc(F)cc(Cl)c2)c1Br [Compound 101] | – | – |
| < 50 | – | 250 to 1000 | N#Cc1c(Oc2cc(F)cc(F)c2)ccc2c1C(O)C(F)(F)S2(=O)=O (stereo not shown) [Compound 443] | – | – |
| < 50 | – | 50 to 249 | N[C@@H]1c2c(ccc(Oc3cc(F)cc(F)c3)c2C(F)F)S(=O)(=O)C1(F)F [Compound 401] | – | – |
